# Experimental data taken from PMC5162400, “Discovery of novel inhibitors disrupting HIF-1α/von Hippel–Lindau interaction through shape-based screening and cascade docking” (PeerJ, 2016).
# Tests used:
# [1] = biological target: T1, pVHL (Homo sapiens, UniProt P40337); design: method as in earlier work; details: native ligands of pVHL crystal complexes, labelled by PDB ID, ref Buckley et al., 2012b, Van-Molle et al., 2012a, Dias et al., 2014, Galdeano et al., read-out: Kd of native ligand; cited from earlier work
# [2] = biological target: T1, pVHL; experiment: Fluorescence polarization binding assay (FAM-DEALA-Hyp-YIPD displacement from V1-213CB); details: inhibition of HIF-1α/pVHL interaction, mean ± SEM
# Protocol: The fluorescence intensities parallel (Intparallel) and perpendicular (Intperpedicular) to the plane of excitation were measured in black 96-well NBS assay plates (Greiner Microlon) at room temperature. The plate was then shaken for 1 min and centrifuged for 1 min. […] The inhibition percentage was determined by normalizing to maximum and minimum polarization and graphed against the log [VL].
# T1 sequence (P40337 whole entry): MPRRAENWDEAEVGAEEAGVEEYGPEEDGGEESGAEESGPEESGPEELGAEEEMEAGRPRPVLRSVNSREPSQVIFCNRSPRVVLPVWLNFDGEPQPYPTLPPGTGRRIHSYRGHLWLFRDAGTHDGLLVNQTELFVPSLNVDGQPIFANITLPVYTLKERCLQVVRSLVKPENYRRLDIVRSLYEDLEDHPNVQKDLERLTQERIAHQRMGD
# T1 sequence (Q15369 whole entry partner): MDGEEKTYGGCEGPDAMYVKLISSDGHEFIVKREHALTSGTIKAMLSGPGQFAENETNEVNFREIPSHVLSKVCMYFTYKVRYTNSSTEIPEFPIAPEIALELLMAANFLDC
# T1 sequence (Q15370 whole entry partner): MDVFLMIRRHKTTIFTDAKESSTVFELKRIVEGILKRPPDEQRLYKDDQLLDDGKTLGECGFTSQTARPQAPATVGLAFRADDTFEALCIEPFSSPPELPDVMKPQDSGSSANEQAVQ
IC50 [2] [nM],SMILES,Kd [1] [nM]
–,Cc1ncsc1-c1ccc(CNC(=O)C2CC(O)CN2C(=O)c2cccc(N)c2C)cc1 (stereo not drawn) [Compound 4B9K],700
102000 ± 6130,c1ccc(-c2ccc(-c3nc4ccc(-c5ccccc5)cc4o3)cc2)cc1 [Compound 6],–
2000 ± 140,CC1=NN(c2ccccc2)C(=O)/C1=N\Nc1ccc(N2CCOCC2)cc1 [Compound 9],–
